Reference: ChEMBL document CHEMBL1149890, “Brianodins A-D, briarane-type diterpenoids from soft coral Pachyclavularia sp” (J Nat Prod, 2008)
Values after ≈ are worked out from the molar mass of the structure shown.

Experiments:
KB = experiment: Cytotoxicity against human KB cells; type: functional, cell-based
L1210 = experiment: Cytotoxicity against mouse L1210 cells; type: functional, cell-based

SMILES	IC50 (KB) [µg/mL]	IC50 (L1210) [µg/mL]
CC(=O)O[C@@H]1C/C(C)=C\[C@@H]2OC(=O)[C@]3(C)O[C@]23[C@@H](OC(C)=O)[C@H]2[C@](C)(O)[C@H](OC(C)=O)C=C[C@]2(C)[C@@H]1O [BRIANODIN A]	4.3 (≈ 8.23 µM)	1.8 (≈ 3.44 µM)
CC(=O)O[C@@H]1[C@H](O)[C@@H](OC(C)=O)/C(C)=C\[C@@H]2OC(=O)[C@@](C)(O)[C@@]2(O)[C@@H](OC(C)=O)[C@H]2[C@](C)(O)[C@H](OC(C)=O)C=C[C@]12C [BRIANODIN B]	> 10	
CC(=O)O[C@@H]1[C@H](O)[C@@H](OC(C)=O)/C(C)=C\[C@@H]2OC(=O)[C@@](C)(O)[C@@]2(O)[C@@H](OC(C)=O)[C@H]2[C@](C)(O)[C@H](O)C=C[C@]12C [BRIANODIN C]	> 10	
CC(=O)O[C@@H]1C/C(C)=C\[C@@H]2OC(=O)[C@@](C)(O)[C@@]2(O)[C@@H](OC(C)=O)[C@H]2[C@](C)(O)[C@H](O)C=C[C@]2(C)[C@@H]1O [BRIANODIN D]	> 10	
